Reference: patent US4352809A, “Method of producing alpha2 antagonism” (Smithkline Corporation, priority 1981, dated 1982)
Structures can show the parent of a compound that is named as a salt.

Biological target: T1, alpha2 -adrenoceptor (Cavia porcellus, UniProt Q60474)
T1 construct: The left atrium is removed, dissected free of extraneous tissue and mounted in a 2 ml. superfusion chamber; from tissue; host or cells: isolated left atrium of male guinea pig (prejunctional receptors on sympathetic nerve terminals)
T1 sequence (Q60474 1-464): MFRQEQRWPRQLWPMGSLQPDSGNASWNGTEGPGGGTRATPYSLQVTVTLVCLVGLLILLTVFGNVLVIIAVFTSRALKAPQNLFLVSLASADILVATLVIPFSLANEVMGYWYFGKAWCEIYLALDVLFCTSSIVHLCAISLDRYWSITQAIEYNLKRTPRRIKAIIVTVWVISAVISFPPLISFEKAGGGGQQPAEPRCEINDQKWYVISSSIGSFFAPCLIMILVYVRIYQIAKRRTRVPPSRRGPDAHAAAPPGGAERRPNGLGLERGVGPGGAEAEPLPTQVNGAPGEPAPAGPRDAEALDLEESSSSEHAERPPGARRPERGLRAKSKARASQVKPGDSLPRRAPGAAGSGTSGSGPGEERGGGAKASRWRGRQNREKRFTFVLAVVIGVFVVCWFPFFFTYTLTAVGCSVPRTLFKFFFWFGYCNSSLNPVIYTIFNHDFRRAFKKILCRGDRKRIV
Experiment: prejunctional alpha2-antagonist activity, isolated superfused guinea pig left atrium (shift of the clonidine concentration-response curve)
Type: cell-based
Settings: isolated perfused guinea pig left atrium; antagonist concentration that shifts the clonidine log concentration-response curve to the right by a factor of 2; read-out: KB (receptor dissociation constant of the antagonist)
Procedure: Briefly, the heart is removed from a pentobarbitol-anesthetized male guinea pig. The left atrium is removed, dissected free of extraneous tissue and mounted in a 2 ml. superfusion chamber. The tissue is paced at 60 pulse/minute and the sympathetic nerves excited at 6 minute intervals by field stimulation. The response to nerve stimulation is measured as the difference in contractile force between the basal contraction and peak contraction following a nerve stimulation. A concentration-response curve for clonidine (alpha2 -agonist) is prepared by administering increasing concentration of clonidine following each successive stimulation. The tissue is then superfused with the alpha2 -antagonist to be tested for thirty minutes and the clonidine concentration-effect curve was repeated in the presence of antagonist. The receptor dissociation constant of the antagonist (KB) is defined as the antagonist concentration required to shift the log concentration-response curve of the agonist to the right by a factor of 2.

- Kb: 220 nM
SMILES: c1cc2snnc2c2c1CCNC2 [[1,2,3]thiadiazolo[5,4-h]-6,7,8,9-tetrahydroisoquinoline hydrochloride]
